Reference: patent US7214691B2, “2-substituted benzimidazole derivatives as selective melanin concentrating hormone receptor antagonists for the treatment of obesity and related disorders” (Schering Corporation, priority 2003, dated 2007)
Where two headings read alike, the source gives them in different places.

Target: T1, MCH receptor (Homo sapiens, UniProt Q99705)
T1 construct: expressed in transfected cells; host or cells: CHO cells
Test: MCH Receptor Binding Assay
Settings: membranes from CHO cells expressing the MCH receptor, [125I]-MCH, SPA
Description: MCH Receptor Binding Assay: Membranes from CHO cells expressing the MCH receptor were prepared by lysing cells with 5 mM HEPES for 15 min at 4 C. Cell lysates were centrifuged ([…], 15 min) and the pellet was resuspended in 5 mM HEPES. For each 96-well plate (Microlite, Dynex Technologies), 1 mg of cell membranes were incubated with 10 mg of wheat germ agglutinin SPA beads (Amersham) for 5 min at 4 C in a volume of 10 ml of binding buffer (25 mM HEPES, 10 mM MGCl2, 10 mM NaCl, 5 mM MnCl2, 0.1% BSA). The membrane/bead mixture was centrifuged (1500×g, 3.5 min), the supernatant was aspirated, and the pellet was resuspended in 10 ml binding buffer. The centrifugation, aspiration and resuspension were then repeated. The membrane/bead mixture (100 μl) was then added to 96-well plates containing 50 μl of 500 pM [^125I]-MCH (NEN) and […] of the appropriate concentration of compound (4× the desired final concentration). Nonspecific binding was determined by including 1 μM MCH in the binding reaction. The binding reaction was incubated at room temperature for 2 h. Plates were then analyzed in a TOPCOUNT microplate scintillation counter (Packard). Data was analyzed and Ki values were determined using GraphPad Prism.

[1] = class symbols, read-out: MCH Ki

T1 sequence (Q99705 whole entry): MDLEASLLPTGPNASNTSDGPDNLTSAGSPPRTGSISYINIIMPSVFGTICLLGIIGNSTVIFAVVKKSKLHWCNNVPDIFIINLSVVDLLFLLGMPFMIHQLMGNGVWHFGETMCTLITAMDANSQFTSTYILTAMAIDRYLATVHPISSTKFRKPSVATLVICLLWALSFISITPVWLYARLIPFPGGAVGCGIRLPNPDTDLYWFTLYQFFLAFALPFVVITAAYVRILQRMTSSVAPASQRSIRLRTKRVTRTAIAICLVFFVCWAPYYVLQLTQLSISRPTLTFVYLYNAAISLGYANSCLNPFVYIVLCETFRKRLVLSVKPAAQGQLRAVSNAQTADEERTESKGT

Ki [1]	Compound	Ki (numeric value in text, read-out: Ki value)
> 100 nM	N#Cc1cccc(-c2ccc(C(=C3CCN(Cc4ccccc4)CC3)c3nc4cc(F)ccc4[nH]3)cc2)c1 [Compound 1a]	–
> 100 nM	COc1cc(C(=C2CCN(CC3CC3)CC2)c2nc3cc(F)c(C(F)(F)F)cc3[nH]2)ccc1-c1cccc(C#N)c1 [Compound 1aa]	–
> 100 nM	COc1cc(C(=C2CCNCC2)c2nc3cc(F)c(C(F)(F)F)cc3[nH]2)ccc1-c1cccc(C#N)c1 [Compound 1ab]	–
< 20 nM	N#Cc1cccc(-c2ccc(C(=C3CCN(Cc4ccccc4)CC3)c3nc4cc(F)c(Cl)cc4[nH]3)cc2)c1 [Compound 1b]	–
< 20 nM	N#Cc1cccc(-c2ccc(C(=C3CCNCC3)c3nc4cc(Cl)c(Cl)cc4[nH]3)cc2)c1 [Compound 1c]	–
< 20 nM	N#Cc1cccc(-c2ccc(C(=C3CCN(CC4CC4)CC3)c3nc4cc(Cl)c(Cl)cc4[nH]3)cc2)c1 [Compound 1d]	–
20 to 50 nM	CN1CCC(=C(c2ccc(-c3cccc(C#N)c3)cc2)c2nc3cc(Cl)c(Cl)cc3[nH]2)CC1 [Compound 1e]	–
< 20 nM	N#Cc1cccc(-c2ccc(C(=C3CCN(C4CCCC4)CC3)c3nc4cc(Cl)c(Cl)cc4[nH]3)cc2)c1 [Compound 1f]	–
50 to 100 nM	CS(=O)(=O)N1CCC(=C(c2ccc(-c3cccc(C#N)c3)cc2)c2nc3cc(Cl)c(Cl)cc3[nH]2)CC1 [Compound 1g]	–
> 100 nM	Fc1cc(F)cc(-c2ccc(C(=C3CCN(CC4CC4)CC3)c3nc4cc(Cl)c(Cl)cc4[nH]3)cc2)c1 [Compound 1h]	–
> 100 nM	N#Cc1ccc(-c2ccc(C(=C3CCN(CC4CC4)CC3)c3nc4cc(Cl)c(Cl)cc4[nH]3)cc2)cc1 [Compound 1i]	–
50 to 100 nM	Clc1cc2nc(C(=C3CCN(CC4CC4)CC3)c3ccc(-c4cccnc4)cc3)[nH]c2cc1Cl [Compound 1j]	–
20 to 50 nM	O=Cc1cccc(-c2ccc(C(=C3CCN(CC4CC4)CC3)c3nc4cc(Cl)c(Cl)cc4[nH]3)cc2)c1 [Compound 1k]	–
20 to 50 nM	CN(C)Cc1cccc(-c2ccc(C(=C3CCN(CC4CC4)CC3)c3nc4cc(Cl)c(Cl)cc4[nH]3)cc2)c1 [Compound 1l]	–
50 to 100 nM	Clc1cc2nc(C(=C3CCN(CC4CC4)CC3)c3ccc(-c4cccc(CN5CCC5)c4)cc3)[nH]c2cc1Cl [Compound 1m]	–
> 100 nM	CC(C)(C)OC(=O)N1CCC(=C(c2ccc(-c3cccc(C#N)c3)cc2)c2nc3cc(F)c(F)cc3[nH]2)CC1 [Compound 1n]	–
50 to 100 nM	N#Cc1cccc(-c2ccc(C(=C3CCNCC3)c3nc4cc(F)c(F)cc4[nH]3)cc2)c1 [Compound 1o]	–
> 100 nM	CN1CCC(=C(c2ccc(-c3cccc(C#N)c3)cc2)c2nc3cc(F)c(F)cc3[nH]2)CC1 [Compound 1p]	–
50 to 100 nM	N#Cc1cccc(-c2ccc(C(=C3CCN(CC4CC4)CC3)c3nc4cc(F)c(F)cc4[nH]3)cc2)c1 [Compound 1q]	–
< 20 nM	N#Cc1cccc(-c2ccc(C(=C3CCNCC3)c3nc4cc(C(F)(F)F)c(F)cc4[nH]3)cc2)c1 [Compound 1r]	–

Ki [1]	Compound	Ki (numeric value in text, read-out: Ki value)
> 100 nM	N#Cc1cccc(-c2ccc(C(=C3CCNCC3)c3nc4c(Cl)cc(Cl)cc4[nH]3)cc2)c1 [Compound 1t]	–
50 to 100 nM	N#Cc1cccc(-c2ccc(C(=C3CCN(CC4CC4)CC3)c3nc4cc(Cl)cc(Cl)c4[nH]3)cc2)c1 [Compound 1u]	–
50 to 100 nM	CS(=O)(=O)N1CCC(=C(c2ccc(-c3cccc(C#N)c3)cc2)c2nc3cc(F)c(C(F)(F)F)cc3[nH]2)CC1 [Compound 1v]	–
20 to 50 nM	CCN(CC)C(=O)N1CCC(=C(c2ccc(-c3cccc(C#N)c3)cc2)c2nc3cc(F)c(C(F)(F)F)cc3[nH]2)CC1 [Compound 1x]	–
20 to 50 nM	CN(C)C(=O)N1CCC(=C(c2ccc(-c3cccc(C#N)c3)cc2)c2nc3cc(F)c(C(F)(F)F)cc3[nH]2)CC1 [Compound 1y]	–
< 20 nM	N#Cc1cccc(-c2ccc(C(=C3CCN(CC(=O)O)CC3)c3nc4cc(F)c(C(F)(F)F)cc4[nH]3)cc2)c1 [Compound 1z]	–
> 100 nM	CC(C)(C)OC(=O)N1CCC2(CC1)CC2(c1ccc(-c2cccc(C#N)c2)cc1)c1nc2cc(F)c(C(F)(F)F)cc2[nH]1 (centres unmarked) [Compound 23a]	–
> 100 nM	CC(C)(C)OC(=O)N1CCC2(CC1)CC2(c1ccc(-c2cccc(C#N)c2)cc1)c1nc2cc(Cl)c(Cl)cc2[nH]1 (centres unmarked) [Compound 23b]	–
< 20 nM	N#Cc1cccc(-c2ccc(C3(c4nc5cc(Cl)c(Cl)cc5[nH]4)CC34CCN(Cc3ccccc3)CC4)cc2)c1 (centres unmarked) [Compound 23c]	–
< 20 nM	N#Cc1cccc(-c2ccc(C3(c4nc5cc(Cl)c(Cl)cc5[nH]4)CC34CCNCC4)cc2)c1 (centres unmarked) [Compound 24b]	–
< 20 nM	N#Cc1cccc(-c2ccc(C3(c4nc5cc(Cl)c(Cl)cc5[nH]4)CC34CCN(CC3CC3)CC4)cc2)c1 (centres unmarked) [Compound 25b]	–
50 to 100 nM	CC(C)S(=O)(=O)N1CCC2(CC1)CC2(c1ccc(-c2cccc(C#N)c2)cc1)c1nc2cc(F)c(C(F)(F)F)cc2[nH]1 (centres unmarked) [Compound 26a]	–
> 100 nM	CC(C)S(=O)(=O)N1CCC2(CC1)CC2(c1ccc(-c2cccc(C#N)c2)cc1)c1nc2cc(Cl)c(Cl)cc2[nH]1 (centres unmarked) [Compound 26b]	–
20 to 50 nM	CN(C)C(=O)N1CCC2(CC1)CC2(c1ccc(-c2cccc(C#N)c2)cc1)c1nc2cc(F)c(C(F)(F)F)cc2[nH]1 (centres unmarked) [Compound 27a]	–
> 100 nM	CCN(CC)C(=O)N1CCC2(CC1)CC2(c1ccc(-c2cccc(C#N)c2)cc1)c1nc2cc(F)c(C(F)(F)F)cc2[nH]1 (centres unmarked) [Compound 27c]	–
20 to 50 nM	N#Cc1cccc(-c2ccc(C3(c4nc5cc(F)c(C(F)(F)F)cc5[nH]4)CC34CCN(CC(=O)O)CC4)cc2)c1 (centres unmarked) [Compound 28a]	–
> 100 nM	N#Cc1cccc(-c2ccc(C3(c4nc5cc(F)c(C(F)(F)F)cc5[nH]4)CC34CCN(c3nccs3)CC4)cc2)c1 (centres unmarked) [Compound 29a]	–
> 100 nM	N#Cc1cccc(-c2ccc(C3(c4nc5cc(F)c(C(F)(F)F)cc5[nH]4)CC34CCN(c3nc5ccc(Cl)cc5s3)CC4)cc2)c1 (centres unmarked) [Compound 29b]	–
> 100 nM	N#Cc1cccc(-c2ccc(C3(c4nc5cc(F)c(C(F)(F)F)cc5[nH]4)CC34CCN(c3nc5ccccc5s3)CC4)cc2)c1 (centres unmarked) [Compound 29c]	–

Compound	Ki [1]	Ki (numeric value in text, read-out: Ki value)
N#Cc1cccc(-c2ccc(C3(c4nc5cc(F)c(C(F)(F)F)cc5[nH]4)CC34CCNCC4)cc2)c1 (centres unmarked) [Compound 24a]	< 20 nM	1.7 nM
